Test results from patent publication US20140294942A1, “ANTIVIRAL PEPTIDES EFFECTIVE AGAINST HEPATITIS C VIRUS” (THE REGENTS OF THE UNIVERSITY OF CALIFORNIA, priority 2011, published 2014).
Entries after “also recorded” stand apart in the source; their conditions may differ. Where two headings read alike, the source gives them in different places. Bridge positions count the residues as written; N and C are the ends. Square brackets hold non-standard residues; d marks the D form. Peptide text beside a SMILES is read from it. Cha = N[C@@H](CC1CCCCC1)C(=O)O; Ahx = NCCCCCC(=O)O

Experiments:
[1] = system: NS5A-augmented IRES-mediated translation; assay: Bicistronic HCV IRES reporter assay (Firefly/Renilla luciferase); format: cell-based, Hepatitis C virus; conditions: for effect of peptide treatment on NS5A-augmented IRES-mediated translation: cells treated with peptide and transfected with reporter construct and NS5A or GFP
Source text: FIG. 5A: Schematic of the bicistronic reporter construct used to measure IRESmediated translation. Firefly luciferase (FLuc) and Renilla luciferase (RLuc) are driven by HCV IRES and a 5′ cap, respectively. Each reporter has a stop codon to allow independent expression. Firefly to Renilla ratios are used to follow changes in levels of IRES-mediated translation. For all experiments, the IRES reporter, either NS5A or GFP, and a peptide construct (if indicated) were transfected into cells.
293T cells were transfected with HCV IRES reporter plasmid; either pMSCV5AFLAG or pMSCVGFP; and pCCL-CMV-IRES-EGFP plasmid expressing one of the following peptides: C34, NS5A domain II peptide, NS5A domain III peptide, NS3 peptide, or one of the C34 mutagenesis peptides. All transfections were done using Fugene 6 (Roche, 11814443001). 48 hours post transfection, Renilla and Firefly luciferase activity was determined using Dual Luciferase Assay System (Promega, E1910).
After identifying the C-terminal region of NS5A as the HSP70 binding site in vitro, we sought to determine whether this region has any functional significance. NS5A has been reported to increase IRES-mediated translation in a cell culture-based bicistronic reporter system (He et al. (2003) J. General Virol., 84: 535-543) (FIG. 5A). This reporter system consists of the Firefly luciferase open reading frame (ORF) driven by HCV IRES and Renilla luciferase ORF under the control of a 5′ cap (FIG. 5A). The ratio of Firefly to Renilla luciferase activity can be used to measure the levels of IRES-mediated translation. The C-terminal 34 amino acid peptide corresponding to amino acids 165-198 of NSSA domain I (hereafter referred to as C34) was tested for its effect on altering IRES-mediated translation. […]
We also assessed the impact of the HCV4 peptide on NS5A-augmented IRES-mediated translation. […]

[2] = system: HCV Renilla reporter virus
Protocol: (§1) Huh-7.5 cells were transfected with the indicated peptide construct and 48 hours later infected with the reporter virus for three hours. Cells were harvested 24 hours post infection, and Renilla activity was measured. All Renilla values were normalized to GFP transfection. […] Huh-7.5 cells were treated with the indicated concentrations of HCV4 or the arginine tag control peptide and immediately infected with the Renilla reporter virus for three hours. Cells were assayed 24 hours post infection for Renilla activity. ‘Percent protection’ refers to the percentage of decrease in Renilla levels compared with no peptide treatment.
pNRLFC was in vitro transcribed, and the purified RNA was electroporated into Huh-7.5 cells to generate infectious viral supernatant as previously described (Arumugaswami et al. (2008) PLoS Pathogens, 4: e1000182). Viral assays were done using the HCV reporter virus as described previously (Gonzalez et al. (2009) Hepatology50: 1756-1764).
(§2) Two cysteine residues were added to each end to allow for disulfide bond formation and to achieve a conformation similar to the C34 hairpin. Also an arginine tag was added to the N-terminal cysteine to allow for efficient uptake by cells without any transfection reagent. Huh-7.5 cells were treated with concentrations of HCV4 peptide ranging from 100 μM to 10 pM in the HCVcc system and were immediately infected with the HCV Renilla reporter virus.

replicon = conditions: reported in the literature, read-out: IC50 in Cell Culture; cited from earlier work
[3] = primer extension; reported in the literature; read-out: IC50 in in vitro Assays; cited from earlier work
protease = protease (Hepatitis C virus genotype 1a, UniProt P27958); conditions: protease assay; reported in the literature; read-out: IC50 in in vitro Assays; cited from earlier work
polymerase = polymerase (Hepatitis C virus genotype 1a, UniProt P27958); conditions: polymerase assay; reported in the literature; read-out: IC50 in in vitro Assays; cited from earlier work
Huh-7.5 cells = system: Huh-7.5 cells
Protocol: as §1
Cell viability was determined using MTT Cell Proliferation assay (ATCC, 30-1010K).
as §2

HCV = conditions: previously shown (Gonzalez et al. 2009); cited from earlier work
[4] = system: NS5A-augmented IRES-mediated translation; conditions: previously shown (Gonzalez et al. 2009); cited from earlier work

Chain of polymerase (P27958 2421-3011): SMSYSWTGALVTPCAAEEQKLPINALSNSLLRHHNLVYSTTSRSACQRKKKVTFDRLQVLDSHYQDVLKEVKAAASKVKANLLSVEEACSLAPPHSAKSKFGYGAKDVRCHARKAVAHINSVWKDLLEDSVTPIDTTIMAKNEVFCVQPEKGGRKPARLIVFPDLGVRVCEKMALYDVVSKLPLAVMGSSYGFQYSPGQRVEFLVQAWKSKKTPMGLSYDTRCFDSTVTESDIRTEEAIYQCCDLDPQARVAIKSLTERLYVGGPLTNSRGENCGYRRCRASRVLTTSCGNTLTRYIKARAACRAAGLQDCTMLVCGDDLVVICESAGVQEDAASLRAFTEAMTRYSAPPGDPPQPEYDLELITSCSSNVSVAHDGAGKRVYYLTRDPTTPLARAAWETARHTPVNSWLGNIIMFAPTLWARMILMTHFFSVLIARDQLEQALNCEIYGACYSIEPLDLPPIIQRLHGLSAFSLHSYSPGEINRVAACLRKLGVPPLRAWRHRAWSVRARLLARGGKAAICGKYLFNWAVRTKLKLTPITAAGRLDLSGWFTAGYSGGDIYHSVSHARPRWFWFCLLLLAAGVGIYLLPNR
Chain of protease (P27958 1027-1657 limits assumed): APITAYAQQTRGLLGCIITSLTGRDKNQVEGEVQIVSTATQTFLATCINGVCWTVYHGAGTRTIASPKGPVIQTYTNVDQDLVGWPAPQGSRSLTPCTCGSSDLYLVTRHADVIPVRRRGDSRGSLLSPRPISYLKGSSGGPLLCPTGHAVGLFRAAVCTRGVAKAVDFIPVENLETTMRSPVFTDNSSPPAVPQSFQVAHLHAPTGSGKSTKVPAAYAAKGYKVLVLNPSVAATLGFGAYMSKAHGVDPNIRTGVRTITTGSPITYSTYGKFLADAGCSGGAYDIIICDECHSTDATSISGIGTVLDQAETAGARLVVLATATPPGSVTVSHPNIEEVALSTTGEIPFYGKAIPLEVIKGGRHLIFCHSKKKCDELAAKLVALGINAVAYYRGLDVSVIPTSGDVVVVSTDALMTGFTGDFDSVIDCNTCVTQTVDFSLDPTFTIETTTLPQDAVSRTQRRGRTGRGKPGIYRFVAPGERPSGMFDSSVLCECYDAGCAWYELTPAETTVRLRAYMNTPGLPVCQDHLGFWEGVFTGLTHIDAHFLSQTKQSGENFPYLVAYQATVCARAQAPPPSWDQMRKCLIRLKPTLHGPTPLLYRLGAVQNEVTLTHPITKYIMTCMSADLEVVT
Chain of protease (P27958 1658-1711 partner limits assumed): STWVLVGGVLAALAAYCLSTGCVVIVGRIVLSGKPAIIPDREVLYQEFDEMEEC

**Q.** For “R-(Ahx-R)6—CONH2 [arginine tag control peptide, reference compound]”, which “effect of peptide treatment on NS5A-augmented IRES-mediated translation” value [1] is on record?
**A.** The value was “fail to produce similar results”.

**Q.** And the “effect on intracellular viral protein production” value ([2]; peptide added to Huh-7.5 cells without transfection reagent, immediately infected with Renilla reporter virus, assayed 24 hours post infection)?
**A.** Its value is “did not show any effect”.

**Q.** With `CC(C)(C)OC(=O)N[C@H]1CCCCC/C=C\[C@@H]2C[C@@]2(C(=O)NS(=O)(=O)C2CC2)NC(=O)[C@@H]2C[C@@H](OC(=O)N3Cc4cccc(F)c4C3)CN2C1=O` [ITMN-191, Da noprevir] as the compound, how does the IC50 (replicon) read?
**A.** Its IC50 is 1.8 nM.

**Q.** With `CCc1cc(CC[C@]2(C3CCCC3)CC(O)=C(Cc3nc4nc(C)cc(C)n4n3)C(=O)O2)cc(CC)n1` [Filibuvir] as the compound, how does the IC50 [3] read?
**A.** The IC50 was 50 nM.

**Q.** For `COc1ccc2c(O[C@@H]3C[C@H]4C(=O)N[C@]5(C(=O)NS(=O)(=O)C6CC6)C[C@H]5/C=C\CCCCN(C)C(=O)[C@@H]4C3)cc(-c3nc(C(C)C)cs3)nc2c1C` [TMC435], which IC50 (protease) is on record?
**A.** The IC50 was 13 nM.

**Q.** For `Fc1ccccc1-c1nc2ccn(Cc3ccc(-c4ccc(C(F)(F)F)cc4C(F)(F)F)nn3)cc-2n1` [GS-9190, Tegobuvir], which IC50 (polymerase) is on record?
**A.** The IC50 was greater than 71000 nM.

**Q.** With “LREEVSFRVGLHEYPVGSQLPCEP EPDVAVLTSM [C34]” as the compound, how does the “cell viability by MTT on peptide expression” value (Huh-7.5 cells; expressed from construct, data not shown) read?
**A.** Its value is “no effect”.

**Q.** And the “effect of expressed peptide on NS5A-augmented IRES-mediated translation” value ([1]; 293T cells transfected with IRES reporter, NS5A or GFP, and peptide construct, 48 hours post transfection)?
**A.** Its value is “block; also recorded: suppresses”.

**Q.** For `C=C[C@@H]1C[C@]1(NC(=O)[C@@H]1C[C@@H](Oc2cc(-c3csc(NC(=O)C(C)C)n3)nc3c(Br)c(OC)ccc23)CN1C(=O)[C@@H](NC(=O)OC1CCCC1)C(C)(C)C)C(=O)O` [Bl 201335], which IC50 (replicon) is on record?
**A.** The IC50 was 3.1 to 50 nM.

**Q.** Which IC50 (replicon) does the source give for `CC(C)C(=O)OC[C@H]1O[C@@H](n2ccc(N)nc2=O)[C@](C)(F)[C@@H]1OC(=O)C(C)C` [R7128 (PSI-6130)] here?
**A.** The IC50 was 600 nM.

**Q.** With `CC(C)[C@@H]1NC(=O)[C@H](CCCNC(=N)N)NC(=O)[C@H](Cc2ccccc2)NC(=O)[C@H](CO)NC(=O)[C@@H](NC(=O)CCCCCNC(=O)CCCCCNC(=O)[C@H](CCCNC(=N)N)NC(=O)CCCCCNC(=O)[C@H](CCCNC(=N)N)NC(=O)CCCCCNC(=O)[C@H](CCCNC(=N)N)NC(=O)CCCCCNC(=O)[C@H](CCCNC(=N)N)NC(=O)CCCCCNC(=O)[C@H](CCCNC(=N)N)NC(=O)CCCCCNC(=O)[C@H](CCCNC(=N)N)NC(=O)CCCCCNC(=O)[C@@H](N)CCCNC(=N)N)CSSC[C@@H](C(N)=O)NC(=O)[C@@H]2CCCN2C(=O)[C@H](Cc2ccc(O)cc2)NC(=O)[C@H](CCC(=O)O)NC(=O)[C@H](Cc2c[nH]cn2)NC(=O)[C@H](CC2CCCCC2)NC(=O)[C@H]2CCCN2C1=O` [HCV4, Arg-(Ahx-Arg)6-Ahx-Ahx-Cys-Ser-Phe-Arg-Val-(D)Pro-Cha-His-Glu-Tyr-Pro-Cys] (H-R[Ahx]R[Ahx]R[Ahx]R[Ahx]R[Ahx]R[Ahx]R[Ahx][Ahx]CSFRV[dP][Cha]HEYPC-NH2; disulfide 16-27; N-terminus assumed) as the compound, how does the MTT toxicity (Huh-7.5 cells; 10 μM) read?
**A.** Its MTT toxicity is “slight toxicity”.

**Q.** What about the MTT toxicity (Huh-7.5 cells; 100 μM) of the same compound?
**A.** Its MTT toxicity is “toxicity”.

**Q.** What about the MTT toxicity (Huh-7.5 cells; any concentration lower than 10 μM) of the same compound?
**A.** The MTT toxicity was “no cytotoxicity”.

**Q.** What about the “effect of peptide treatment on NS5A-augmented IRES-mediated translation” value [1] of the same compound?
**A.** The value was “blocks”.

**Q.** What about the IC50 ([2]; read-out: IC50 in Cell Culture, reporter virus) of the same compound?
**A.** Its IC50 is 0.542 nM.

**Q.** What about the IC50 ([2]; read-out: estimated IC50, intracellular viral protein production, Huh-7.5 cells treated with peptide 100 μM to 10 pM, immediately infected with HCV Renilla reporter virus, Renilla activity 24 hours post infection) of the same compound?
**A.** The IC50 was roughly 0.5 nM.

**Q.** Which IC50 (replicon) does the source give for `C/C=C/C[C@@H](C)[C@@H](O)[C@H]1C(=O)N[C@@H](CC)C(=O)N(C)[C@H](SCCN(C)C)C(=O)N(C)[C@@H](CC(C)(C)O)C(=O)N[C@@H](C(C)C)C(=O)N(C)[C@@H](CC(C)C)C(=O)N[C@@H](C)C(=O)N[C@H](C)C(=O)N(C)[C@@H](CC(C)C)C(=O)N(C)[C@@H](CC(C)C)C(=O)N(C)[C@@H](C(C)C)C(=O)N1C` [SCY-635] here?
**A.** The IC50 was 140 nM.

**Q.** Which IC50 (replicon) does the source give for `CC[C@@H]1C[C@]1(NC(=O)[C@@H]1C[C@@H]2CN1C(=O)[C@H](C(C)(C)C)NC(=O)OCC(C)(C)CCCCc1cccc3c1CN(C3)C(=O)O2)C(=O)NS(=O)(=O)C1CC1` [MK-7009, Vaniprevir] here?
**A.** The IC50 was 5 to 15 nM.

**Q.** Which “effect on virus production” value (HCV) does the source give for `O=c1c(O)c(-c2ccc(O)c(O)c2)oc2cc(O)cc(O)c12` [Quercetin] here?
**A.** The value was “blocked”.

**Q.** And the “effect on NS5A-augmented IRES-mediated translation” value [4]?
**A.** The value was “blocked”.
